Results: patent US20230381176A1, “A PHARMACEUTICAL COMPOSITION AND USE THEREOF FOR TREATMENT OF CANCER” (Ascentage Pharma (Suzhou) Co., Ltd., priority 2020, published 2023)

Columns and labels:
ovarian PDX OV1658 = experiment: Ovarian PDX model OV1658, Compound 5 and carboplatin and/or paclitaxel; type: in vivo, mouse
Method: (§1) A subcutaneous xenograft tumor model of human tumor immunodeficient mice was established by cell inoculation: tumor cells in logarithmic growth phase were collected, counted, resuspended in 1×PBS, and the cell suspension concentration was adjusted to 2.5-5 ×10^7/mL. The tumor cells were inoculated subcutaneously in the right side of immunodeficient mice with a 1 mL syringe ([…]), 5-10×10^6/0.2 mL/mouse. All animal experiments were strictly in accordance with the specifications for the use and management of experimental animals in GenePharma Co., Ltd. and Suzhou Ascentage Pharma Co., Ltd. The calculation of relevant parameters refers to the Chinese NMPA “Guidelines for Non-Clinical Research Techniques of Cytotoxic Anti-tumor Drugs”.
(§2) Animal body weight and tumor size were measured twice weekly during the experiment. The state of the animal and the presence or absence of death were observed every day. The growth of tumor and the effects of treatment on normal behavior of animals were monitored routinely, specifically involving experimental animal activity, feeding and drinking, weight gain or loss, eyes, clothing hair and other abnormalities. The deaths and clinical symptoms observed during the experiment were recorded in the raw data. All operations for administration and measurement of mouse body weight and tumor volume were performed in a clean bench. According to the requirements of the experimental protocol, after the end of the last administration, plasma and tumor tissues were collected, weighed and photographed. The plasma and tumor samples were frozen at −80° C. for ready-to-use.
(§3) Tumor volume (TV) is calculated as: TV=a×b^2/2, wherein a and b represent the length and width of the tumor to be measured, respectively.
(§4) The relative tumor volume (RTV) is calculated as: RTV=Vt/V1, wherein V1 is the tumor volume at the start of grouping and administration, and Vt is the tumor volume measured on the t day after administration.
(§5) Change of body weight (%)=(measured body weight−body weight at the start of grouping)/body weight at the start of grouping×100%.
(§6) A dose of drug is considered to be severely toxic if the body weight of mouse is reduced by more than 20% or the number of drug-related deaths exceeds 20%.
(§7) According to the description by Clarke R., Issues in experimental design and endpoint analysis in the study of experimental cytotoxic agents in vivo in breast cancer and other models [J]. Breast Cancer Research & Treatment, 1997, 46(2-3): 255-278, synergy analysis was evaluated using the following formula: synergy factor=((A/C)×(B/C))/(AB/C); A=RTV value of drug A alone group; B=RTV value of drug B alone group; C=RTV value of the solvent control group, and AB=RTV value of the A and B combination group.
(§8) Use of mRECIST (Gao et al., 2015) measured tumor responses included stable disease (SD), partial tumor regression (PR), and complete regression (CR), determined by comparing tumor volume change at day t to its baseline: tumor volume change (%)=(Vt−V1)/V1. The BestResponse was the minimum value of tumor volume change (%) for t≥10. For each time t, the average of tumor volume changes from t=1 to t was also calculated. BestAvgResponse was defined as the minimum value of this average for t≥10. The criteria for response (mRECIST) were adapted from RECIST criteria (Gao et al., 2015; Therasse et al., 2000) and defined as follows: mCR, BestResponse<−95% and BestAvg Response<−40%; mPR, BestResponse<−50% and BestAvgResponse<−20%; mSD, BestResponse<35% and BestAvgResponse<30%; mPD, not otherwise categorized. SD, PR, and CR were considered responders and used to calculate response rate (%). […] Body weight of animals were monitored simultaneously. The change in body weight was calculated based on the animal weight of the first day of dosing (day 1). Tumor volume and changes in body weight (%) were represented as the mean±standard error of the mean (SEM).

[1] = test system: TP53wt, BRAFv600E, NRASwt, PTENwt, CDKN2Amut C32 cutaneous melanoma; experiment: C32 cutaneous melanoma model, Compound 5 and Dabrafenib + trametinib; type: in vivo
Method: In this experiment, a TP53wt , BRAFv600E , NRASwt, PTENwt, CDKN2Amut C32 cutaneous melanoma model (Wuxi Pharma Tech) was established to evaluate the anti-tumor effect of Compound 5 in combination with BRAFi (Dabrafenib)+MEKi (trametinib) (Selleck). The dosing regimen was as follows: • Compound 5: 50 mg/kg, PO QD 21 D, for a total of 25 days; • Dabrafenib +trametinib: Dabrafenib 30mg/kg,QD QD 21 D for a total of 25 days, trametinib 1 mg/kg
The dosing regimen of each drug in the dosing regimen for the combination is the same as the dosing regimen for the single drug.

[2] = test system: PTK2 high ovarian PDX OV2018; experiment: PTK2 high ovarian PDX model OV2018, Compound 5 and paclitaxel; type: in vivo, mouse
Method: as §1, §2, §3, §4, §5, §6, §7, §8

[3] = test system: U-87-MG subcutaneous glioblastoma; experiment: U-87-MG subcutaneous glioblastoma model, Compound 5 and Palbociclib; type: in vivo
Method: In this experiment, a U-87-MG subcutaneous glioblastoma model (Wuxi Pharma Tech) was established to evaluate the anti-tumor effect of Compound 5 in combination with Palbociclib/Trametinib/TMZ. The dosing regimen was as follows: • Compound 5: 100 mg/kg, PO QD 21 D; • Palbociclib: 20mg/kg,QD QD 21 D, • Trametinib: 0.5 mg/kg QD QD 21 D, • TMZ 50 mg/kg QD QD 21 D, The dosing regimen of each drug in the dosing regimen for the combination is the same as the dosing regimen for the single drug. [table]

[4] = test system: OVCAR3 s.c. ovarian xenograft; type: in vivo
Method: as §1, §2, §3, §4, §5, §6, §7, §8

[5] = Compound 5 50 mg/kg orally once per day, carboplatin 30 mg/kg i.p. once a week, paclitaxel 10 mg/kg i.v. once a week, 19 days
[6] = best response, animals per class
[7] = Compound 5 50 mg/kg PO QD, Dabrafenib 30 mg/kg QD, trametinib 1 mg/kg
[8] = Compound 5 50 mg/kg orally once per day, paclitaxel 10 mg/kg i.v. once a week, 35 days
[9] = Compound 5 100 mg/kg PO QD, Palbociclib 20 mg/kg QD
[10] = Compound 5 100 mg/kg orally once per day, paclitaxel 10 mg/kg i.v. once a week, carboplatin 30 mg/kg i.v. once a week

In the case of `Cc1cc(Nc2ncc(Cl)c(Nc3ccccc3S(=O)(=O)C(C)C)n2)c(OC(C)C)cc1C1=CCN(C2CCOCC2)CC1` [Compound 5, 5-chloro-N^2-(2-isopropoxy-5-methyl-4-(1-(tetrahydro-2H-pyran-4-yl)-1,2,3,6-tetrahydropyridin-4-yl)phenyl)-N^4-(2-(isopropylsulfonyl)phenyl)pyrimidine-2,4-diamine], the “RTV on Day 19 after administration (mean ± standard error)” value (ovarian PDX OV1658; [5]) is reported as 14.57 ± 0.47, the “T/C on Day 19 after administration (%)” value (ovarian PDX OV1658; [5]) is reported as 106.67% and the “mRECIST on Day 19 after administration” value (ovarian PDX OV1658; Day 19, animals per class) is reported as 2/2 PD. For the same compound, the mRECIST (ovarian PDX OV1658; [6]) was 2/2 PD, the “RTV % @ D25” value [1, 7] was 17.80 ± 1.3% and the “T/C % @ D25” value [1, 7] was 106.09%. For the same compound, the “antitumor activity (conclusion in words)” value ([1]; in vivo) was “no antitumor activity”, the “RTV on Day 35 after administration (mean ± standard error)” value [2, 8] was 3.94 ± 0.41 and the “T/C on Day 35 after administration (%)” value [2, 8] was 162.80%. The “mRECIST on Day 35 after administration” value ([2]; Day 35, animals per class) was 2/2 PD, the mRECIST [2, 6] was 2/2 PD and the “antitumor activity (conclusion in words)” value ([2]; mouse, in vivo) was “no antitumor activity”. For the same compound, the “RTV @ D15” value [3, 9] was 18.1 ± 1.1, the “T/C (%) @ D15” value [3, 9] was 120.7% and the mRECIST ([3]; animals per class) was 5/5 PD. For the same compound, the “antitumor activity (conclusion in words)” value ([3]; in vivo) was “no antitumor activity”, the “RTV on Day 35 after administration (mean ± standard error)” value [4, 10] was 13.66 ± 2.88 and the “T/C on Day 35 after administration (%)” value [4, 10] was 85.04%. The mRECIST ([4]; animals per class) was 5/5 PD, the “antitumor activity (conclusion in words)” value ([4]; mouse, in vivo) was “minor antitumor activity” and the “Overall regression rate (ORR), %” value ([4]; proportion of animals with CR or PR) was 0%. The “Disease control rate (DCR), %” value ([4]; proportion of animals with CR, PR or SD) was 0%.
